Experiments:
[1] = test system: Bel7402: a human liver cancer cell line; assay: MTT analytical method, Bel7402 cells; format: cell-based; details: Bel-7402, 72 h
Text: (§1) MTT analytical method was used to test the prodrugs for various tumor cells.
(§2) • 1) Cell lines: NCI-H460, A549, LOVO, HT-29, MDA-MB-231, SGC7901, HepG2 or BEL-7402 cell lines. Culture: adherent culturing in D-MEM (Hyclone, Inc.) containing 10% fetal calf serum. The initial cell concentration was about 3×10^5 /mL. The cell was passaged by 1:3 dilution in every 2-3 days. On the day before the test, the cell was passaged by 1:2 dilution, the cell concentration for the test was 5-10×10^5 /mL. • 2) Dissolution and dilution of compounds: according to the weight and molecular weight of the drugs provided, 100-200 μL of DMSO was added. Then normal saline was added to make the final diluted concentration of the drugs be 5 mM (Note that the final concentration of DMSO should not be more than 10%). • 3) D-MEM or RPMI 1640 cell culture medium, Gibco, Inc. • 4) Fetal calf serum Hyclone, Inc. • 5) Cell dissociation buffer, 0.25% Trypsin+0.02% EDTA. • 6) MTT solution, MTT Powder (Sigma) were dissolved in PBS buffer solution to make a solution of 5 mg/mL. The solution was filtered by a 0.22 μm micropore membrane and stored at −20° C. • 7) PBS buffer solution. • 8) 10% acidified SDS, 0.01N HCl. • 9) Centrifuge tubes, haustorial tubes etc. (BD, Inc.); 96-well plates (Costatr, Inc.) Procedures: • 1) Cell inoculation: Cells grown for 24 hours after passage, which cells were in good growth state, were used. The cells were harvested by the routine method. The cell concentration was adjust with a fresh culture solution to 2×10^5/mL (for adherent cells)-3×10^5/mL (for suspension cells). The adherent cells were inoculated at 100 μL/well and then cultivated in an incubator with 5% CO2 at 37° C. for 24 h. Thereafter the used culture solution was removed and 95 μL/well of fresh culture solution was added. The suspension cells were inoculated at 95 μL/well directly. • 2) Drugs treatment: 9 concentration grades were designed for every drug, and every concentration had 3 wells. The control group had 5 wells. The control group was tested simultaneously in each test. The final concentrations of a drug added were […], and 5 μL normal saline was added to the control group. • 3) Cell culture and detection: the cells were cultured in an incubator with 5% CO2 at 37° C. for 72 h after the drug was added, then 10 μL MTT was added to each well and the culture was continued for 4 h. 100 μL of 10% SDS (containing 0.01N HCl) was added to each well. After 24 h, the absorbance (A) of each well was determined by Bio-rad 680 ELISA with the detection wavelength of 570 nm and the reference wavelength of 630 nm. Calculation:
(§3) First, the absorbance (A) of each well was averaged (removing any data with big difference). […] A0 was the mean absorbance of the control wells. The effect curve of the drug concentration was drawn using EXCEL software and the drug concentration for 50% cell survival was calculated according to an appropriate computing methods.

[2] = test system: A549: a human lung cancer cell line; assay: MTT analytical method, A549 cells; format: cell-based; details: 72 h
Text: as §1, §2, §3

[3] = test system: HT29: a human colon cancer cell line; assay: MTT analytical method, HT29 cells; format: cell-based; details: HT-29, 72 h
Text: as §1, §2, §3

[4] = test system: H460 cells, a human lung cancer cell line, inoculated in nude mice; assay: H460 tumor in nude mice, oral administration of SL-01; format: in vivo, Balb/c female nude mice; details: for Mean Volume of Tumor: Ftorafur 120 mg/kg gastric gavage
Protocol: 1. […] Suspension formulation was prepared using 2.5% starch for intragastric administration. […] In the test, it was dissolved in normal saline and filtered with microfiltration membrane and administrated by tail vein injection. Positive control drug: Ftorafur (FT-207) produced by Qilu Pharmaceutical Co. Ltd., oral formulation.
2. Experimental animals: 50 Balb/c female nude mice at 4-5 weeks old, purchased from Peking University Health Science Center.
1. Culture of tumor cells: H460 cells were cultured in an incubator with 5% CO2 at 37° C. using RPMI-1640 nutrient solution containing 10% fetal calf serum. The cells were passaged through routine method.
2.2 Method of inoculating tumor cells in nude mice: cells were collected when they grew to about […] in culture flasks. Cells were washed twice with PBS before they were digested, then 1.5 mL of digestion solution juices was added into every bottle. They were observed under a microscope and the digestion was terminated after the cells were shed. Cell suspension was collected into 50 mL of centrifugal tube and centrifuged and washed twice with PBS. It was counted and suspended with 10 mL of normal saline to get the tumor cell suspension of inoculated nude mice. The tumor cells (1×10^7/0.2 mL) were inoculated in the left front armpits of mice. The tumor growth was observed after the inoculation.
4. Evaluation protocols for drug treating effect: these mice were weighed before drug administration and every week thereafter. The long tumor pathline (a) and the short tumor pathline (b) were measured at the same time. The formula for calculating the tumor volume is V=(a×b^2)/2. Mice were euthanized after drug administration for 3 weeks. The tumor was taken out and weighed. […] W was the tumor weight of the treatment group.

| SMILES | IC50 [1] | IC50 [2] | IC50 [3] | other results |
| --- | --- | --- | --- | --- |
| CCCCCCCCCCCCOC(=O)c1ccccc1C(=O)Nc1ccn([C@@H]2O[C@H](CO)[C@@H](O)C2(F)F)c(=O)n1 [Compound 1, Dodecyl-2-((1-((2R,4R,5R)-3,3-difluoro-4-hydroxy-5-(hydroxymethyl)-tetrahydrofuran-2-yl)-2-oxo-1,2-dihydropyrimidin-4-yl)carbamoyl)benzoate] | 20 µM | 23 µM | 13 µM |  |
| CCCCCCCCCCCOC(=O)c1ccccc1C(=O)Nc1ccn([C@@H]2O[C@H](CO)[C@@H](O)C2(F)F)c(=O)n1 [Compound 2, Undecyl-2-((1-((2R,4R,5R)-3,3-difluoro-4-hydroxy-5-(hydroxymethyl)-tetrahydrofuran-2-yl)-2-oxo-1,2-dihydropyrimidin-4-yl)carbamoyl)benzoate] | 162 µM |  | > 200 µM |  |
| CCCCCCCCCCCCCCCCOC(=O)c1ccccc1C(=O)Nc1ccn([C@@H]2O[C@H](CO)[C@@H](O)C2(F)F)c(=O)n1 [Compound 3, Hexadecyl-2-((1-((2R,4R,5R)-3,3-difluoro-4-hydroxy-5-(hydroxymethyl)-tetrahydrofuran-2-yl)-2-oxo-1,2-dihydropyrimidin-4-yl)carbamoyl)benzoate] | 60 µM |  | 10 µM |  |
| CCCCCCCCCCOC(=O)c1cccc(C(=O)Nc2ccn([C@@H]3O[C@H](CO)[C@@H](O)C3(F)F)c(=O)n2)c1 [Compound 6, Decyl-3-((1-((2R,4R,5R)-3,3-difluoro-4-hydroxy-5-(hydroxymethyl)-tetrahydrofuran-2-yl)-2-oxo-1,2-dihydropyrimidin-4-yl)carbamoyl)benzoate] | 30 µM |  | 13 µM |  |
| CCCCCCCCCCCCOC(=O)c1ncccc1C(=O)Nc1ccn([C@@H]2O[C@H](CO)[C@@H](O)C2(F)F)c(=O)n1 [Compound 12, Dodecyl-3-((1-((2R,4R,5R)-3,3-difluoro-4-hydroxy-5-(hydroxymethyl)-tetrahydrofuran-2-yl)-2-oxo-1,2-dihydropyrimidin-4-yl)carbamoyl)picolinate] | 60 µM |  | 20 µM |  |
| CCCCCCCCCCCCOC(=O)c1ccc(C(=O)Nc2ccn([C@@H]3O[C@H](CO)[C@@H](O)C3(F)F)c(=O)n2)s1 [Compound 20, Dodecyl-5-((1-((2R,4R,5R)-3,3-difluoro-4-hydroxy-5-(hydroxymethyl)-tetrahydrofuran-2-yl)-2-oxo-1,2-dihydropyrimidin-4-yl)carbamoyl)thiophene-2-carboxylate] | 14 µM | 13 µM | 6 µM |  |
| CCCCCCCCCCCOC(=O)c1ccc(C(=O)Nc2ccn([C@@H]3O[C@H](CO)[C@@H](O)C3(F)F)c(=O)n2)s1 [Compound 21, Undecyl-5-((1-((2R,4R,5R)-3,3-difluoro-4-hydroxy-5-(hydroxymethyl)-tetrahydrofuran-2-yl)-2-oxo-1,2-dihydropyrimidin-4-yl)carbamoyl)thiophene-2-carboxylate] | 43 µM |  | 24 µM |  |
| CCCCCCCCCCCOC(=O)C1CCCCC1C(=O)Nc1ccn([C@@H]2O[C@H](CO)[C@@H](O)C2(F)F)c(=O)n1 (stereo partly drawn) [Compound 36, Undecyl-2-((1-((2R,4R,5R)-3,3-difluoro-4-hydroxy-5-(hydroxymethyl)-tetrahydrofuran-2-yl)-2-oxo-1,2-dihydropyrimidin-4-yl)carbamoyl)cyclohexanecarboxylate] | > 200 µM |  | > 200 µM |  |
| O=c1[nH]c(=O)n(C2CCCO2)cc1F (stereo not drawn) [FT-207, Ftorafur, reference compound] |  |  |  | Mean Volume of Tumor ([4]; day 7): 756.7 mm^3; Mean Volume of Tumor ([4]; day 14): 1347.0 mm^3; Mean Volume of Tumor ([4]; day 18): 1526.3 mm^3; Mean Volume of Tumor ([4]; day 22): 1779.4 mm^3; Inhibition ratio (tumor weight) ([4]; Positive control (Ftorafur 120 mg/kg gavage)): 38.5%; Mean Weight of Nude Mice ([4]; Positive control (Ftorafur 120 mg/kg gavage), day 0): 19.3 g; Mean Weight of Nude Mice ([4]; Positive control (Ftorafur 120 mg/kg gavage), day 7): 19.5 g; Mean Weight of Nude Mice ([4]; Positive control (Ftorafur 120 mg/kg gavage), day 14): 19.8 g; Mean Weight of Nude Mice ([4]; Positive control (Ftorafur 120 mg/kg gavage), day 22): 19.7 g; Tumor Weight, Average Value ([4]; Positive control (Ftorafur 120 mg/kg gavage), end of the experiment): 1.26 g; efficacy by t-test, in words ([4]; positive control group (Ftorafur 120 mg/kg gavage)): significant efficacy |

Second part, led by results:

| IC50 [1] | IC50 [2] | IC50 [3] | SMILES | other results |
| --- | --- | --- | --- | --- |
| 125 µM |  | 80 µM | CCCCCCCCCCCOC(=O)c1cccc(C(=O)Nc2ccn([C@@H]3O[C@H](CO)[C@@H](O)C3(F)F)c(=O)n2)c1 [Compound 7, Undecyl-3-((1-((2R,4R,5R)-3,3-difluoro-4-hydroxy-5-(hydroxymethyl)-tetrahydrofuran-2-yl)-2-oxo-1,2-dihydropyrimidin-4-yl)carbamoyl)benzoate] |  |
| 30 µM | 13 µM | 4 µM | CCCCCCCCCCCOC(=O)c1ccc(C(=O)Nc2ccn([C@@H]3O[C@H](CO)[C@@H](O)C3(F)F)c(=O)n2)nc1 [Compound 10, Undecyl-6-((1-((2R,4R,5R)-3,3-difluoro-4-hydroxy-5-(hydroxymethyl)-tetrahydrofuran-2-yl)-2-oxo-1,2-dihydropyrimidin-4-yl)carbamoyl)nicotinate] |  |
| 4 µM | 3 µM | < 2 µM | CCCCCCCCCCCOC(=O)c1ccc(C(=O)Nc2ccn([C@@H]3O[C@H](CO)[C@@H](O)C3(F)F)c(=O)n2)cn1 [Compound 11, Undecyl-5-((1-((2R,4R,5R)-3,3-difluoro-4-hydroxy-5-(hydroxymethyl)-tetrahydrofuran-2-yl)-2-oxo-1,2-dihydropyrimidin-4-yl)carbamoyl)picolinate] |  |
| > 200 µM | 140 µM | 35 µM | CCCCCCCCCCCOC(=O)c1cccnc1C(=O)Nc1ccn([C@@H]2O[C@H](CO)[C@@H](O)C2(F)F)c(=O)n1 [Compound 14, Undecyl-2-((1-((2R,4R,5R)-3,3-difluoro-4-hydroxy-5-(hydroxymethyl)-tetrahydrofuran-2-yl)-2-oxo-1,2-dihydropyrimidin-4-yl)carbamoyl)nicotinate] |  |
| 16 µM | 15 µM | 7 µM | CCCCCCCCCCCCOC(=O)c1cccc(C(=O)Nc2ccn([C@@H]3O[C@H](CO)[C@@H](O)C3(F)F)c(=O)n2)n1 [Compound 18, Dodecyl-6-((1-((2R,4R,5R)-3,3-difluoro-4-hydroxy-5-(hydroxymethyl)-tetrahydrofuran-2-yl)-2-oxo-1,2-dihydropyrimidin-4-yl)carbamoyl)picolinate] |  |
| 46 µM |  | 25 µM | CCCCCCCCCCCOC(=O)c1cccc(C(=O)Nc2ccn([C@@H]3O[C@H](CO)[C@@H](O)C3(F)F)c(=O)n2)n1 [Compound 19, Undecyl-6-((1-((2R,4R,5R)-3,3-difluoro-4-hydroxy-5-(hydroxymethyl)-tetrahydrofuran-2-yl)-2-oxo-1,2-dihydropyrimidin-4-yl)carbamoyl)picolinate] |  |

Reference: patent US8653048B2 (Sanlugen Pharmatech Ltd., priority 2009, dated 2014)
